Target: CK1 D132A
Assay: Radioactive (32P-ATP) timecourse kinase assay, CK1 D132A mutant
Format: biochemical, human
Conditions: 200 μM peptide, 20 nM CK1 (primed) or 200 nM CK1 (unprimed), 750 μM ATP, 30 °C (Figure S15B-C)
Protocol: PER FASP region peptides were synthesized and purified to 95% or higher (SABio). Two independent reaction mixtures of 50 μL containing 200 μM of the FASP or in reaction buffer (25 mM Tris pH 7.5, 7.5 mM MgCl2, 1 mM DTT, 0.1 mg/mL BSA) were preincubated for 5 minutes with or without 20 nM CK1 (for primed FASP) or 200 nM CK1 (for unprimed FASP) and the reaction was started by addition of 750 μM of UltraPure ATP (Promega) containing 1–2 μCi of X-^32p ATP (Perkin Elmer). After incubation of the reaction mix at 30 °C, an 8 μL aliquot of the reaction mix was transferred to P81 phosphocellulose paper (Reaction Biology Corp) at the indicated timepoints. The P81 paper was washed three times with 75 mM of orthophosphoric acid and once with acetone. The air-dried P81 paper was counted for Pi incorporation using a scintillation counter (Perkin Elmer) by Cherenkov counting. Results shown are from four independent assays.

RKKKTEVSAHLSSLTLPGKAESVVSLTSQ [unprimed FASP peptide, synthetic mouse PER2 FASP region peptide, unprimed CK1 substrate]
kinase activity, CK1 D132A compared with CK1 WT: dramatic loss in activity

RKKKTEVSAHLSSLTLPGKAEpSVVSLTSQ [primed FASP peptide, synthetic mouse PER2 FASP peptide phosphorylated at the priming serine]
kinase activity, CK1 D132A compared with CK1 WT: more modest effect

From article doi:10.1101/2025.01.17.633651, “Markovian State Models uncover Casein Kinase 1 dynamics that govern circadian period” (bioRxiv, 2025)
